Target: T1, porcine pancreatic elastase (PPE) (Sus scrofa, UniProt P00772)
T1 construct: gene CELA1; commercial native enzyme from porcine pancreas (Sigma Aldrich); PDB 1QGF printed for the docking model of PPE
Test: spectrophotometric, p-nitroaniline release at […] nm
Type: biochemical
Settings: read-out: IC50 Values / EI (μg/mL) (converted)

T1 sequence (P00772 27-266): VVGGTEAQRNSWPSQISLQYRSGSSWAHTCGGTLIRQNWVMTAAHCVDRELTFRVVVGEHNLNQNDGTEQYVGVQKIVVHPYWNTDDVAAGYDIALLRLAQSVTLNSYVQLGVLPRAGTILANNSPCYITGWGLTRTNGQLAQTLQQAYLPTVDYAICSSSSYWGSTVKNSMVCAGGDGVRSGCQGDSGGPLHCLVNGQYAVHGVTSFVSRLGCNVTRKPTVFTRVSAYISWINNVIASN

IC50: 759 µM
SMILES: O=C(O[C@@H]1Cc2c(O)cc(O)cc2O[C@@H]1c1cc(O)c(O)c(O)c1)c1cc(O)c(O)c(O)c1 [epigallocatechin gallate]
